The target of series [1] is IL-23 mediated signalling (Homo sapiens, UniProt Q5VWK5). Briefly: Functional inhibition of IL-23 mediated STAT3 signalling (phospho-STAT3 MSD) in DB cells. Type of series: cell-based. The following applies: DB cells, hIL-23 at EC80. A digest of the protocol:
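DB cells preincubated with inhibitor 15 min at 37 °C, then stimulated 90 min with EC80 human IL-23; lysate phospho-STAT3 measured by MSD electrochemiluminescence. Signal normalized to IL-23-alone and buffer controls; IC50 and maximal % inhibition from 4-parameter logistic fit.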

Series [2] is described as follows: Peptide stability in simulated gastric fluid (SGF). The conditions noted are these: pig, simulated gastric fluid (SGF) with porcine pepsin (3.2 g/L), 37 °C, porcine pepsin; for remaining at 4 h, 10 µM: pH 1.2, 4 h. Type of series: in vitro ADME. A digest of the protocol:
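Peptide incubated at 37 °C with gentle shaking in SGF (NaCl, pH 1.2). Samples centrifuged, diluted and analysed by LC-HRMS; percent remaining at each timepoint from absolute peak areas relative to time zero, with 4 h as the reference point.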

Where two headings read alike, the source gives them in different places.

Sequence of IL-23 mediated signalling (Q5VWK5 24-629 limits assumed): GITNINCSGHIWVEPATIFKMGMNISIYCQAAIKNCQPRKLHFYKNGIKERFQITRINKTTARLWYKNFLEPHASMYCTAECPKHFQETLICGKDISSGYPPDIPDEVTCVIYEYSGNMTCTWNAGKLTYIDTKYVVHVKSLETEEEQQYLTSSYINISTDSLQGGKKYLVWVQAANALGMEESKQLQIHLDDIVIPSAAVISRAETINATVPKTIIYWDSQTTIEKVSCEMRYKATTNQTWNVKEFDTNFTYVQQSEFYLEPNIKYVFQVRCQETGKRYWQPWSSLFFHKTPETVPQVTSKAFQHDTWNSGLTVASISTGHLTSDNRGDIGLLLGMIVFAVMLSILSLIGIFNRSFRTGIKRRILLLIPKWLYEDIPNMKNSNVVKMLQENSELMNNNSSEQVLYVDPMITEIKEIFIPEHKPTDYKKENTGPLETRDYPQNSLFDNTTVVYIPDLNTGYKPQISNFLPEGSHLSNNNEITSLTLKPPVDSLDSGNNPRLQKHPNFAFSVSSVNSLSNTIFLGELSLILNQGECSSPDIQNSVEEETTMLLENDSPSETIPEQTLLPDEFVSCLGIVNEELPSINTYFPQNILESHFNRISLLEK

Take `CC(C)C[C@]1(C)NC(=O)[C@H](Cc2ccc3ccccc3c2)NC(=O)[C@H](Cc2ccc(OCCN)cc2)NC(=O)[C@@H]2CCC(=O)N[C@H](CCCCNC(=O)CC[C@@H](C(=O)N[C@@H](CCN)C(=O)N[C@@H](Cc3cccnc3)C(N)=O)NC1=O)C(=O)N[C@@H]([C@@H](C)O)C(=O)N[C@@H](C(C)C)C(=O)N[C@@H](Cc1c[nH]c3ccccc13)C(=O)N[C@@H](CCC(N)=O)C(=O)N2` [Compound 1, [{d}K](1c)(6c)^†TVWQE(6c)[Y(2-aminoethoxy)][2-Nal][2-Me-Leu]E(1c)[Dab][3-(3-Pyridyl)-Ala]-[NH2]]: the 50% inhibitory concentration (IC50) (in general, the concentration needed to halve the response being measured) in series [1] (SAR tables 2-1 to 2-7, read-out: IC50 (pSTAT3)) was 0.23 nM. Further, the Emax in series [1] (Table 3-2, maximal inhibitory response, read-out: hIL-23 (pSTAT3) antagonist % inhibition) was found to be 102%. In addition, the remaining at 1 h, 10 µM in series [2] (pH 1.2, 10 µM, pH 1.2, 1 h, read-out: SGF (% remaining 1 h)) is 104%. Besides, the remaining at 4 h, 10 µM is 97% in series [2] (pH 1.2, 10 µM, read-out: SGF (% remaining 4 h)) and 104% in series [2] (pH 1.2, SAR tables, % peptide remaining, 10 µM, read-out: SGF (% after 4 h)).

Values taken from EP4471048A1, “PEPTIDE INHIBITORS OF INTERLEUKIN-23 RECEPTOR” (Zealand Pharma A/S, priority 2023, dated 2024).
